Assay results from US20230310432A1 (JULIUS-MAXIMILIANS-UNIVERSITÄT WÜRZBURG, priority 2017, published 2023).
Read-outs that look alike come from different tables or passages of the source.

Key:
[1] = system: CD8+ T cells expressing a ROR1 CAR with 4-1BB costimulatory domain; assay: Bioluminescence-based cytotoxicity assay, RCH-ACV target cells; assay type: cell-based, human; conditions: 100 nM dasatinib; t=8 hours; >90% untreated
[2] = system: CD8+ T cells expressing a CD19 CAR with 4-1BB costimulation; assay: Bioluminescence-based cytotoxicity assay, K562/CD19 target cells; assay type: cell-based, human
Description: Cytotoxicity: Target cells were stably transduced with ffluc_GFP and incubated in triplicate wells at 1×10^4 cells/well with effector T cells at an effector to target (E:T) ratio of 5:1. D-luciferin substrate (Biosynth, Staad, Switzerland) was added to the co-culture to a final concentration of 0.15 mg/ml and the decrease in luminescence signal in wells that contained target cells and T-cells was measured using a luminometer (Tecan, Mannedorf, Switzerland). Specific lysis was calculated using the standard formula.
The inventors prepared CD8+ CAR-T cell lines from n=3 healthy donors. In each of the T-cell lines, the inventors enriched CAR-expressing T cells to >90% purity using the EGFRt-transduction marker. The inventors analyzed cytolytic activity of CD8^+ CAR-T cells in a bioluminescence-based cytotoxicity assay using K562 that the inventors had transduced with either CD19 (for testing CD19 CAR-T cells) or ROR1 (for testing ROR1 CAR-T cells) as target cells. Dasatinib was added to the assay medium at the beginning of the assay.
The inventors prepared CD8^+ CAR-T cell lines from n=3 healthy donors. In each of the T-cell lines, the inventors enriched CAR-expressing T cells to >90% purity using the EGFRt-transduction marker. The inventors analyzed cytolytic activity of CD8^+ CAR-T cells in a bioluminescence-based cytotoxicity assay using K562 target cells that the inventors had transduced with CD19.
The CAR-T cell cytolytic activity was analyzed at 1-hour intervals for 10 hours.
The inventors analyzed cytolytic activity of CD8+ CAR-T cells in a bioluminescence-based cytotoxicity assay.
The inventors prepared CD8^+ CD19 CAR-T cell lines with a 4-1BB costimulatory domain from one healthy donor. In the T-cell line, the inventors enriched CAR expressing T cells to >90% purity using the EGFRt-transduction marker. The inventors analyzed cytolytic activity of CD8^+ CAR-T cells in a 4-hour bioluminescence-based cytotoxicity assay using K562 that the inventors had transduced with CD19 as target cells to assess the influence of a panel of Src-kinase inhibitors on the cytolytic function of CAR-T cells. Src-kinase inhibitors were added to the assay medium at the beginning of the assay over a 4-log concentration range.

[3] = cited from earlier work
[4] = system: activated CD19 CAR/CD28-T cells; Raji tumor cells; assay: Raji tumor burden by bioluminescence imaging, function ON/OFF/ON (Example 8); assay type: in vivo, NSG mice
Description: (§1) The Institutional Animal Care and Use Committee of UKW approved all mouse experiments. NOD.Cg-Prkdc^scidIl2rg^tm1wjl/SzJ (NSG) mice (female, 6-8 week old) were purchased from Charles River (Sulzfeld, Germany). Mice were inoculated with 1×10^6 Raji/ffluc_GFP tumor cells via tail vein injection (i.v.). Mice were treated with 5×10^6 CAR-modified or control untransduced T-cells (CD4:CD8 ratio=1:1) via tail vein injection (i.v.). […] Tumor burden and distribution was analyzed by serial bioluminescence imaging on an IVIS Lumina imager (Perkin Elmer, Baesweiler, Germany): mice received i.p. injections of 0.3 mg/g luciferin and images were acquired 10 minutes after luciferin injection in small binning mode at an acquisition time of 1 s to 1 min to obtain unsaturated images. Data were analyzed using LivingImage Software (Caliper) and the average radiance (or photon flux) analyzed in regions of interest that encompassed the entire body of each individual mouse. Mice were sacrificed at the end of the experiment and human T cells in bone marrow, peripheral blood and spleen were analyzed by flow cytometry. The presence of (human) cytokines in serum was measured using multiplex cytokine analysis. […]
Raji tumor burden was determined by bioluminescence imaging on day 7, day 10, day 12, day 14, day 17, and subsequently, once a week.

[5] = system: activated CD19 CAR/4-1BB-T cells; Raji tumor cells; assay: Raji tumor burden by bioluminescence imaging, function ON/OFF/ON (Example 7); assay type: in vivo, NSG mice; conditions: between day 12 and 17; CAR-T cells with prior dasatinib; 97.8% without
Description: as §1
Raji tumor burden was determined by bioluminescence imaging on day 7, day 10, day 12, day 14, day 17, and subsequently, once a week (FIG. 16B).

[6] = system: CD19 CAR/4-1BB-T cells; Raji tumor cells; assay: Flow cytometry of tumor cells and human CAR-T cells in bone marrow and spleen, intermittent dasatinib; assay type: in vivo, NSG mice; conditions: day 15
Description: The Institutional Animal Care and Use Committee of UKW approved all mouse experiments. NOD.Cg-Prkdc^scidIl2rg^tm1wjl/SzJ (NSG) mice (female, 6-8 week old) were purchased from Charles River (Sulzfeld, Germany). Mice were inoculated with 1×10^6 Raji/ffluc_GFP tumor cells via tail vein injection (i.v.). Mice were treated with 5×10^6 CAR-modified or control untransduced T-cells (CD4:CD8 ratio=1:1) via tail vein injection (i.v.). […] Tumor burden and distribution was analyzed by serial bioluminescence imaging on an IVIS Lumina imager (Perkin Elmer, Baesweiler, Germany): mice received i.p. injections of 0.3 mg/g luciferin and images were acquired 10 minutes after luciferin injection in small binning mode at an acquisition time of 1 s to 1 min to obtain unsaturated images. Data were analyzed using LivingImage Software (Caliper) and the average radiance (or photon flux) analyzed in regions of interest that encompassed the entire body of each individual mouse. Mice were sacrificed at the end of the experiment and human T cells in bone marrow, peripheral blood and spleen were analyzed by flow cytometry. The presence of (human) cytokines in serum was measured using multiplex cytokine analysis.
In brief, cohorts of 1-12 mice were inoculated with 1×10^6 firefly-luciferase_GFP-transduced Raji tumor cells on day 0. […] Serial bioluminescence imaging was performed to determine tumor burden on day 7, 9 and 15.
On day 15, mice were sacrificed and peripheral blood (PB), bone marrow (BM) and spleen (SP) analyzed for the presence of human CAR-T cells by flow cytometry.

[7] = system: CD8+ T cells expressing a SLAMF7-CAR with 4-1BB costimulation; assay: Bioluminescence-based cytotoxicity assay, K562/SLAMF7 target cells; assay type: cell-based, human

Compound: Cc1nc(Nc2ncc(C(=O)Nc3c(C)cccc3Cl)s2)cc(N2CCN(CCO)CC2)n1 [dasatinib]
- specific lysis [1]: < 5%
- specific lysis ([2]; 0.1 μM dasatinib at the beginning of the assay, t=10 h): < 1%
- specific lysis of target cells ([2]; dasatinib 25 nM, t=6 h, 53% by non-dasatinib treated): 26%
- specific lysis of target cells ([2]; dasatinib 25 nM, t=12 h, 93% by non-dasatinib treated): 73%
- specific lysis of target cells ([2]; dasatinib 100 nM for 2 hours, then removed, at 10 hours): > 95%
- specific lysis of target cells ([2]; dasatinib 100 nM for 2 hours, then removed, at +4 hours): 77%
- specific lysis of target cells ([2]; dasatinib ≤12.5 nM, t=12 h, 93% by non-dasatinib treated CAR-T cells): > 88%
- specific lysis of target cells ([2]; dasatinib ≥50 nM, t=12 h, 93% by non-dasatinib treated): less than 12%
- specific lysis of target cells ([2]; dasatinib ≥50 nM, up to t=6 h): less than 7%
- specific lysis of target cells ([2]; inhibitor 10 nM, 4-hour assay, 82% by untreated CAR-T cells): 16.1%
- dasatinib concentration in mouse serum ([3]; 5 mg/kg i.p., after each injection, based on known pharmacokinetics [23]): > 50 nM
- window after each injection with dasatinib at that serum concentration ([3]; 5 mg/kg i.p., based on known pharmacokinetics [23]): ~6 h
- total window with dasatinib present in mouse serum at that concentration ([3]; 10 mg/kg i.p. every 6 hours, 6 doses, 3 hours prior to 33 hours after T-cell transfer): 36 h
- dasatinib concentration in mouse serum ([3]; 10 mg/kg i.p. every 6 hours, 6 doses, based on known pharmacokinetics [23]): at least 100 nM
- mean reduction of BLI ([4]; between day 12 and 14, previously treated with dasatinib): 71%
- median BLI ([4]; day 17, CAR/Dasa, 966 CAR/vehicle, 839 CAR alone): 507
- reduction of tumor luminescence [5]: 66%
- percentage of human CAR-T cells, bone marrow ([6]; intermittent dasatinib, 1.9% without): 7.3%
- percentage of human CAR-T cells, spleen ([6]; intermittent dasatinib, 3.2% without): 6.9%
- remaining tumor burden, of all living cells in the bone marrow ([6]; one exemplary mouse, CAR-T cells and intermittent dasatinib, 58.8% CAR-T cells only): 0.22%
- specific lysis of target cells ([7]; dasatinib 20 nM, t=6 h, 63% by non-dasatinib treated): 21%
- specific lysis of target cells ([7]; dasatinib 20 nM, t=12 h, 83% by non-dasatinib treated): 35%
- specific lysis of target cells ([7]; dasatinib ≥40 nM, t=12 h, 83% by non-dasatinib treated): less than 10%
- specific lysis of target cells ([7]; dasatinib ≥40 nM, up to t=6 h): less than 5.5%
